Conditions: 6 hours after intravenous administration, B16F10 tumor-bearing mice

Structure (SMILES): C[C@@H]1C[C@H]2[C@@H]3CCC4=CC(=O)C=C[C@]4(C)[C@@]3(F)[C@@H](O)C[C@]2(C)[C@@]1(O)C(=O)CO [free dexamethasone, dexamethasone]
- fraction still residing in the blood stream: 0.3%

Source: patent US9289437B2, “Method for preparation of a controlled release system” (Cristal Delivery B.V., priority 2008, dated 2016)
